Experimental data as given in patent US5807855A, “1-piperazino-1,2-dihydroindene derivatives” (priority 1992, dated 1998).
Where two headings read alike, the source gives them in different places.

How the values were obtained:
DA D2 receptors = molecular target: T1, DA D2 receptors (Rattus norvegicus, UniProt P61169); experiment: Inhibition of 3H-spiperone binding to DA D2 receptors in rat striatal membranes; details: rat striatal membranes, 3H-spiperone; read-out: Receptor Binding; IC50, D2 3H-Spi
T1 construct: DA D2 receptors in rat striatal membranes; from tissue; host or cells: rat striatal membranes
T1 sequence (P61169 whole entry): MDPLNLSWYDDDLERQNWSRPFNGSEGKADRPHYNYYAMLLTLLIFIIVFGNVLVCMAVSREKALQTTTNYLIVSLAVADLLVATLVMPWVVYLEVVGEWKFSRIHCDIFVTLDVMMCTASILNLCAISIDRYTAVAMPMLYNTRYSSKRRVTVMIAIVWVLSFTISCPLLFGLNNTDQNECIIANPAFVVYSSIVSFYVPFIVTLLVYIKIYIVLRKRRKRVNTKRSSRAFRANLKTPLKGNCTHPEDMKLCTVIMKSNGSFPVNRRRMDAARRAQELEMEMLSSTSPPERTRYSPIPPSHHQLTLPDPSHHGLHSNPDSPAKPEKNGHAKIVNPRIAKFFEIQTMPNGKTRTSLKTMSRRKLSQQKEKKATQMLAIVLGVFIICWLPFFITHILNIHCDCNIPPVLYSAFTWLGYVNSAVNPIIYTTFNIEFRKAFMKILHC

DA D1 receptor = DA D1 receptor (Rattus norvegicus, UniProt P18901); experiment: biochemical; format: binding; details: IC50, D1 3H-SCH
Chain of DA D1 receptor (P18901 whole entry): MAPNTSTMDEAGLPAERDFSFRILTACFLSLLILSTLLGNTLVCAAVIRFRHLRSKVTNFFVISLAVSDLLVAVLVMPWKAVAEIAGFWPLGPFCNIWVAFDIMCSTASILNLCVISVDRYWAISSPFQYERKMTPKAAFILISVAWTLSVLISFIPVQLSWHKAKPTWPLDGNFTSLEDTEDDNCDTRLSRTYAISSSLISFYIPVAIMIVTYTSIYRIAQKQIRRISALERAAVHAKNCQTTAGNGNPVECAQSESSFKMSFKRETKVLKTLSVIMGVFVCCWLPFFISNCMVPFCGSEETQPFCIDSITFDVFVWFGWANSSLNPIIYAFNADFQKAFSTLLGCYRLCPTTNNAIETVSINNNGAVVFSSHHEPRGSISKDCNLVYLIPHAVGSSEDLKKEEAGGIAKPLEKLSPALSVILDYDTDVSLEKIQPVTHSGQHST

5-HT2 receptors = molecular target: T2, 5-HT2 receptors (Rattus norvegicus, UniProt P14842); experiment: Inhibition of 3H-ketanserin binding to 5-HT2 receptors in membranes from rat cortex; details: Receptor Binding, IC50, 5-HT2 3H-Ket
T2 construct: 5-HT2 receptors in membranes from rat cortex; from tissue; host or cells: membranes from rat cortex
T2 sequence (P14842 whole entry): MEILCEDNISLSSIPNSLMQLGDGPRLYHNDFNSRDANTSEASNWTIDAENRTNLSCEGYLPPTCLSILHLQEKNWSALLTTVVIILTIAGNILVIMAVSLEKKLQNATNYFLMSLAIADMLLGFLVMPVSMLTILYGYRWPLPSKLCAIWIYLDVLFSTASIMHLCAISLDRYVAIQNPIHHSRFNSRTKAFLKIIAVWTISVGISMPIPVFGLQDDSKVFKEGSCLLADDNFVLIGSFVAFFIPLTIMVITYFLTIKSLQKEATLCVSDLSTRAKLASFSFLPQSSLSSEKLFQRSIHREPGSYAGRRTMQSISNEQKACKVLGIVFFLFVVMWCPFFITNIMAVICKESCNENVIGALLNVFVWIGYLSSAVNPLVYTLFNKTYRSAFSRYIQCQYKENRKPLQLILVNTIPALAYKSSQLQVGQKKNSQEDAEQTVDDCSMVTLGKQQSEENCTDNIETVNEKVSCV
Procedure: Receptor binding studies.
5-HT2 receptors. Inhibition of ^3 H-ketanserin binding to 5-HT2 receptors in membranes from rat cortex was determined as described by Hyttel, J. Acta. Pharmacol. Toxicol.

[1] = rat striatal membranes, 3H-SCH 23390, read-out: Receptor Binding

CC1(C)CN([C@@H]2C[C@@H](c3ccc(F)cc3)c3ccc(Cl)cc32)CCN1 (racemic) [Compound 1, (±)-Trans-4-[6-chloro-3-(4-fluorophenyl)-2,3-dihydro-1H-inden-1-yl]-2,2-dimethylpiperazine]
IC50 (DA D2 receptors): 7.3 nM
IC50 (DA D1 receptor; [1]): 2.1 nM
IC50 (5-HT2 receptors): 3.2 nM

CN1CCN([C@@H]2C[C@@H](c3ccccc3)c3ccccc32)CC1(C)C (racemic) [Compound 3, (±)-Trans-4-[3-phenyl-2,3-dihydro-1H-inden-1-yl]-1,2,2-trimethyl-piperazine]
IC50 (DA D2 receptors): 140 nM
IC50 (DA D1 receptor; Receptor Binding): 13 nM
IC50 (5-HT2 receptors): 21 nM

Cc1ccc2c(c1)[C@H](N1CCNC(C)(C)C1)C[C@H]2c1ccc(F)cc1 (racemic) [Compound 4, (±)-Trans-2,2-dimethyl-4-[6-methyl-3-(4-fluorophenyl)-2,3-dihydro-1H-inden-1-yl]piperazine]
IC50 (DA D2 receptors): 5.6 nM
IC50 (DA D1 receptor; [1]): 5.9 nM
IC50 (5-HT2 receptors): 1.5 nM

Cc1ccc2c(c1)[C@H](N1CCN(C)C(C)(C)C1)C[C@H]2c1ccc(F)cc1 (racemic) [Compound 5, (±)-Trans-4-[6-methyl-3-(4-fluorophenyl)-2,3-dihydro-1H-inden-1-yl]-1,2,2-trimethylpiperazine]
IC50 (DA D2 receptors): 4.8 nM
IC50 (DA D1 receptor; Receptor Binding): 2.1 nM
IC50 (5-HT2 receptors): 3.4 nM

CC1(C)CN([C@@H]2C[C@@H](c3ccc(F)cc3)c3ccc(C(F)(F)F)cc32)CCN1 (racemic) [Compound 6, (±)-Trans-2,2-dimethyl-4-[6-trifluoromethyl-3-(4-fluorophenyl)-2,3-dihydro-1H-inden-1-yl]piperazine]
IC50 (DA D2 receptors): 5.2 nM
IC50 (DA D1 receptor; [1]): 2.8 nM

CN1CCN([C@@H]2C[C@@H](c3ccc(F)cc3)c3ccc(C(F)(F)F)cc32)CC1(C)C (racemic) [Compound 7, (±)-Trans-4-[6-trifluoromethyl-3-(4-fluorophenyl)-2,3-dihydro-1H-inden-1-yl]-1,2,2-trimethylpiperazine]
IC50 (DA D2 receptors): 5.7 nM
IC50 (DA D1 receptor; Receptor Binding): 1.5 nM
IC50 (5-HT2 receptors): 4.5 nM

CN1CCN([C@@H]2C[C@@H](c3ccc(F)cc3)c3ccc(Br)cc32)CC1(C)C (racemic) [Compound 8, (±)-Trans-4-[6-bromo-3-(4-fluorophenyl)-2,3-dihydro-1H-inden-1-yl]-1,2,2-trimethylpiperazine]
IC50 (DA D2 receptors): 8.6 nM
IC50 (DA D1 receptor; Receptor Binding): 1.8 nM
IC50 (5-HT2 receptors): 3 nM

CN1CCN([C@@H]2C[C@@H](c3ccc(F)cc3)c3cc(Cl)c(Cl)cc32)CC1(C)C (racemic) [Compound 9, (±)-Trans-4-[5,6-dichloro-3-(4-fluorophenyl)-2,3-dihydro-1H-inden-1-yl]-1,2,2-trimethylpiperazine]
IC50 (DA D2 receptors): 44 nM
IC50 (DA D1 receptor; [1]): 18 nM
IC50 (5-HT2 receptors): 5.9 nM

CN1CCN([C@@H]2C[C@@H](c3ccc(F)cc3)c3c(Cl)cccc32)CC1(C)C (racemic) [Compound 15, (±)-Trans-4-[4-chloro-3-(4-fluorophenyl)-2,3-dihydro-1H-inden-1-yl]-1,2,2-trimethylpiperazine]
IC50 (DA D1 receptor; [1]): 45 nM
IC50 (5-HT2 receptors): 29 nM

CC1CN([C@@H]2C[C@@H](c3ccc(F)cc3)c3ccc(Cl)cc32)CCN1C (mixture of isomers) [Compound 18, (±)-Trans-4-[6-chloro-3-(4-fluorophenyl)-2,3-dihydro-1H-inden-1-yl]-1,2-dimethylpiperazine]
IC50 (DA D2 receptors): 12 nM
IC50 (DA D1 receptor; [1]): 2.4 nM

CCC1(CC)CN([C@@H]2C[C@@H](c3ccc(F)cc3)c3ccc(Cl)cc32)CCN1C (racemic) [Compound 24, (±)-Trans-4-[6-chloro-3-(4-fluorophenyl)-2,3-dihydro-1H-inden-1-yl]-2,2-diethyl-1-methylpiperazine]
IC50 (DA D2 receptors): 38 nM
IC50 (DA D1 receptor; [1]): 8.8 nM

C[C@@H]1CN([C@@H]2C[C@@H](c3ccc(F)cc3)c3ccc(C(F)(F)F)cc32)C[C@H](C)N1 (racemic) [Compound 27, (±)-Trans-4-[6-trifluoromethyl-3-(4-fluorophenyl)-2,3-dihydro-1H-inden-1-yl]-cis-2,6-dimethylpiperazine]
IC50 (DA D2 receptors): 33 nM
IC50 (DA D1 receptor; [1]): 50 nM

CN1CCN([C@@H]2C[C@@H](c3ccc(F)cc3)c3ccc(Cl)cc32)CC12CCC2 (racemic) [Compound 28, (±)-Trans-8-[6-chloro-3-(4-fluorophenyl)-2,3-dihydro-1H-inden-1-yl]-5-methyl-5,8-diazaspiro[3.5]nonane]
IC50 (DA D2 receptors): 6.3 nM
IC50 (5-HT2 receptors): 3 nM

CN1CCN([C@@H]2C[C@@H](c3ccsc3)c3ccc(Cl)cc32)CC12CCCC2 (racemic) [Compound 30, (±)-Trans-9-[6-chloro-3-(3-thienyl)-2,3-dihydro-1H-inden-1-yl]-6-methyl-6,9-diazaspiro[4.5]decane]
IC50 (DA D2 receptors): 5 nM
IC50 (DA D1 receptor; [1]): 1.8 nM

CN1CCN([C@@H]2C[C@@H](c3ccc(F)cc3)c3ccc(Cl)cc32)CC12CCCCC2 (racemic) [Compound 32, (±)-Trans-4-[6-chloro-3-(4-fluorophenyl)-2,3-dihydro-1H-inden-1-yl]-1-methyl-1,4-diazaspiro[5.5]undecan]
IC50 (DA D2 receptors): 24 nM
IC50 (DA D1 receptor; [1]): 6 nM

Fc1ccc([C@@H]2C[C@@H](N3CCN4CCCCC4C3)c3cc(Cl)ccc32)cc1 (mixture of isomers) [Compound 34, (±)-Trans-2-[6-chloro-3-(4-fluorophenyl)-2,3-dihydro-1H-inden-1-yl]-octahydropyrido[1,2-a]pyrazine]
IC50 (DA D2 receptors): 11 nM
IC50 (DA D1 receptor; [1]): 2.1 nM

CC(C)N1CCN([C@@H]2C[C@@H](c3ccc(F)cc3)c3ccc(Cl)cc32)CC1C (mixture of isomers) [Compound 41, (±)-Trans-4-[6-chloro-3-(4-fluorophenyl)-2,3-dihydro-1H-inden-1-yl]-2-methyl-1-(2-propyl)piperazine]
IC50 (DA D2 receptors): 17 nM
IC50 (DA D1 receptor; [1]): 1.6 nM

CC(C)N1CCN([C@@H]2C[C@@H](c3ccc(F)cc3)c3ccc(Cl)cc32)CC12CCCC2 (racemic) [Compound 42, (±)-Trans-9-[6-chloro-3-(4-fluorophenyl)-2,3-dihydro-1H-inden-1-yl]-6-(2-propyl)-6,9-diazaspiro[4.5]decane]
IC50 (DA D2 receptors): 8.8 nM
IC50 (DA D1 receptor; [1]): 1.3 nM

CC1(C)CN([C@@H]2C[C@@H](c3ccc(F)cc3)c3ccc(Cl)cc32)CCN1CCO (racemic) [Compound 43, (±)-Trans-4-[6-chloro-3-(4-fluorophenyl)-2,3-dihydro-1H-inden-1-yl]-2,2-dimethyl-1-piperazineethanol]
IC50 (DA D2 receptors): 3 nM
IC50 (DA D1 receptor; [1]): 1 nM

CC1(C)CN([C@@H]2C[C@@H](c3ccsc3)c3ccc(Cl)cc32)CCN1CCO (racemic) [Compound 45, (±)-Trans-4-[6-chloro-3-(3-thienyl)-2,3-dihydro-1H-inden-1-yl]-2,2-dimethyl-1-piperazineethanol]
IC50 (DA D2 receptors): 2.8 nM
IC50 (DA D1 receptor; [1]): 0.82 nM

CC(C)C1CN([C@@H]2C[C@@H](c3ccc(F)cc3)c3ccc(Cl)cc32)CCN1C (relative stereo) [Compound 21, Trans-4-[6-chloro-3-(4-fluorophenyl)-2,3-dihydro-1H-inden-1-yl]-1-methyl-2-(2-propyl)piperazine]
IC50 (DA D2 receptors): 36 nM
IC50 (DA D1 receptor; [1]): 3.2 nM

CC(C)C1CN([C@@H]2C[C@@H](c3ccc(F)cc3)c3ccc(Cl)cc32)CCN1C (relative stereo) [Compound 22, Trans-4-[6-chloro-3-(4-fluorophenyl)-2,3-dihydro-1H-inden-1-yl]-1-methyl-2-(2-propyl)piperazine]
IC50 (DA D2 receptors): 400 nM
IC50 (DA D1 receptor; [1]): 43 nM

CC1CN([C@@H]2C[C@@H](c3ccc(F)cc3)c3ccc(Cl)cc32)C(C)CN1C (relative stereo) [Compound 25, (±)-Trans-4-[6-chloro-3-(4-fluorophenyl)-2,3-dihydro-1H-inden-1-yl]-(1-trans-2,5-trimethyl)piperazine]
IC50 (5-HT2 receptors): 3.4 nM

C[C@@H]1CN([C@@H]2C[C@@H](c3ccc(F)cc3)c3ccc(Cl)cc32)C[C@H](C)N1C (relative stereo) [Compound 26, (±)-Trans-4-[6-chloro-3-(4-fluorophenyl)-2,3-dihydro-1H-inden-1-yl]-(1-cis-2,6-trimethyl)piperazine]
IC50 (5-HT2 receptors): 3.3 nM

CN1CCN([C@@H]2C[C@@H](c3ccc(F)cc3)c3ccc(Cl)cc32)CC12CCCC2 (relative stereo) [Compound 29]
IC50 (5-HT2 receptors): 5.2 nM

CC(C)N1CCN([C@@H]2C[C@@H](c3ccc(F)cc3)c3ccc(Cl)cc32)CC1(C)C (relative stereo) [Compound 40]
IC50 (5-HT2 receptors): 4.1 nM

OCCN1CCN([C@@H]2C[C@@H](c3ccc(F)cc3)c3ccc(Cl)cc32)CC12CCCC2 (relative stereo) [Compound 44]
IC50 (5-HT2 receptors): 6 nM

CN1CCN([C@@H]2C[C@@H](c3ccc(F)cc3)c3ccc(Cl)cc32)CC12CCCC2 (single isomer, unassigned) [+29, (+)-Trans-9-[6-chloro-3-(4-fluorophenyl)-2,3-dihydro-1H-inden-1-yl]-6-methyl-6,9-diazaspiro[4.5]decane]
IC50 (5-HT2 receptors): 13 nM

CN1CCN([C@@H]2C[C@@H](c3ccc(F)cc3)c3ccc(Cl)cc32)CC12CCCC2 (single isomer, unassigned) [Compound -29]
IC50 (5-HT2 receptors): 4 nM

CC(C)N1CCN([C@@H]2C[C@@H](c3ccc(F)cc3)c3ccc(Cl)cc32)CC1(C)C (single isomer, unassigned) [Compound -40]
IC50 (5-HT2 receptors): 2.5 nM

OCCN1CCN([C@@H]2C[C@@H](c3ccc(F)cc3)c3ccc(Cl)cc32)CC12CCCC2 (single isomer, unassigned) [Compound -44]
IC50 (5-HT2 receptors): 2.5 nM

OC1CCN2CCN(C3CC(c4ccc(F)cc4)c4ccc(F)cc43)CC2C1 (centres unmarked) [Compound 35, 2-[6-fluoro-3-(4-fluorophenyl)-2,3-dihydro-1H-inden-1-yl]-octahydropyrido[1,2-a]-pyrazine-8-ol]
IC50 (DA D2 receptors): 1100 nM
IC50 (DA D1 receptor; [1]): 30 nM
